Test results: patent publication US20060094676A1, “Compositions and methods for treating cancer using compositions comprising an inhibitor of endothelin receptor activity” (priority 2004, published 2006)
“Also recorded” adds a separate entry of the source.

Tests used:
GRAVIN = assay: Real-time RT-PCR of Gravin transcripts; assay type: cell-based, human; settings: melanoma cell lines treated with BQ788
Experimental: Equal amounts of RNA from cells that were treated with BQ788 for 3 days were subjected to real-time RT-PCR analysis for the detection VEGF (A), HIF-1α (B) and Gravin (C) transcripts. Differences in expression levels are shown as x fold change and are statistically significant (p<0.05) unless a column in marked as non significant (N.S.). Sections of two representative tumors derived from a human melanoma cell line grown in nude mice and injected either with vehicle (D) or BQ788 (E) were stained with anti CD-31 to highlight blood vessels (brown staining, Lahav et al, 1999).
RNA was prepared from the different cell lines in different culture conditions using SV total RNA isolation kit (Promega) according to the manufacturer's protocol. For each sample RNA concentration was determined using the total RNA nano procedure of an Agilent bioanalyzer. A stock of SK-MEL-28 RNA aliquots was prepared containing 10, 20, 50, 100, 200, 500 and 1000 ng/12 μl for use as a standard curve and kept in −80° C. For the experimental unknown samples, a stock of 100 ng/12 μl RNA aliquots from each cell line and condition was prepared and stored at −80° C. […] A standard curve of Ct versus RNA quantity was established and accordingly the Ct in the unknown samples was correlated to quantity of transcript. […]

caspase 3 = assay: Western blot for caspase 3 activation; assay type: cell-based; settings: BQ788-treated melanoma cells; data not shown
Source text: Down-regulation of BCL2-A1 results in caspase 9 activation but not caspase 3 or 8 cleavage (Duriez, et al., A1 functions at the mitochondria to delay endothelial apoptosis in response to tumor necrosis factor, J. Biol. Chem., 275:18099-18107 (2000); Pagliari, et al., Macrophages require constitutive NF-kappaB activation to maintain A1 expression and mitochondrial homeostasis, Mol. Cell Biol., 20:8855-8865 (2000)). […] Whether caspase 6 activation occurs via reduction in BCL-2A1 expression or by alternative pathways remains to be determined.

[1] = tested on: SK-MEL-28 and LN-met cell lines; assay: cDNA microarray analysis of differentially regulated genes; assay type: cell-based, human; settings: SK-MEL-28 and LN-met after 2 days BQ788, confirmed by real-time RT-PCR
Experimental: Cells were cultured in the presence of BQ788 or its solvent (HCO60) for 2 days and then lysed and subjected to RNA extraction using SV Total RNA isolation kit (Promega). Two rounds of RNA amplification were conducted using RiboAmp™ RNA Amplification kit (Arcturus). Labeled cDNA was obtained by reverse transcription of 6 μl amplified RNA and incorporation of Cy3-dCTP (5-Amino-propargyl-2′-dexoycytidine 5′-triphosphate coupled to Cy3 fluorescent dye) and Cy5-dCTP (5-Amino-propargyl-2′-dexoycytidine 5′-triphosphate coupled to Cy5 fluorescent dye) (Amersham Biosciences). Human 10k arrays containing PCR products spotted onto glass slides were obtained from the Lausanne DNA Array Facility (DAF). Hybridization of labeled cDNA to microarrays was preformed for 16 h at 64° C. in a humidified chamber (Corning Costar). Scanning was done in a Scanarray 4000 scanner (Perkin Elmer). Image analysis was preformed using the ScanAlyse program (version 2.5). Data analysis was done using the R package: Statistics for Microarray analysis containing com.braju.sma package (www.r-project.org).
To explore the possible mechanisms that underlie the loss of viability of metastatic but not primary melanoma cells in response to ETRB antagonism, changes in gene expression profiles of BQ788-treated and untreated cells were investigated by cDNA microarray analysis. […]

## CCCC[C@@H](NC(=O)[C@@H](Cc1cn(C(=O)OC)c2ccccc12)NC(=O)[C@H](CC(C)(C)C)NC(=O)N1[C@H](C)CCC[C@@H]1C)C(=O)O [BQ788, N-cis-2,6-dimethylpiperidinocarbonyl-L-γ-methylleucyl-D-1-methoxycarbonyltrptophanyl-D-norleucine]
GRAVIN
  GRAVIN expression: down-regulated
Caspase 3
  caspase 3 activation: did not reveal caspase 3 activation
[1]
  Down regulated gene: BCL2-A1; also recorded: PARP-3; also recorded: Gravin; also recorded: EDNRB
  Up regulated gene: VEGF and HIF-1α
